Measured values: patent publication US9855249B2, “Isoxazole compounds and methods for the treatment of cystic fibrosis” (FLATLEY DISCOVERY LAB, LLC, priority 2014, dated 2018)

Test system: CFTR mediated chloride current in Primary CF airway epithelial cells
Assay: Equivalent current assay in primary CF airway epithelial cells (NAUC)
Type: cell-based
Details: 24 h treatment, stimulated with forskolin and VX770, normalized to positive control 3 μM VX809
Experimental: Primary CF airway epithelial cells were obtained from the UNC Cystic Fibrosis Tissue Procurement and Cell Culture Core. The cells are grown at 37° C. in a Heracell 150i incubator using growth media (BEGM, Fischer). Cells were then transferred to differentiation media (ALI, UNC) for a minimum of 4 weeks on coated Costar snapwells. Two days before the Ussing assay the mucus on the apical surface of the cells was aspirated after incubating with 200 μL of differentiation Media for at least thirty (30) minutes. One day before the Ussing assay test compounds were added to the basolateral surface of the cells at various test concentrations dissolved in DMSO. Duplicate wells were prepared giving a n=3 or n=4 protocol.
Cells were treated for 24 hours with various combinations and concentrations of the test articles, reference standard (3 μM VX809, positive control). Compounds stock solutions were prepared in DMSO and diluted 1/1000 into ALI media to their final assay concentration. Cells were treated with combination solutions (2 mL of each dilution) and incubated at 37° C. for 24 h.
For the equivalent current assay, cells on four Transwell (24-well) plates were treated. Each Transwell plate was filled with 200 μl of HBS on the apical surface and 2 ml on the basolateral surface. Plates were placed horizontally in a heated mount at 37° C., and equilibrated for several minutes. Resting current was measured for 15 min and then blocked by the apical addition of 5 μM benzamil. After 20 min, 10 μM forskolin and 1 μM VX770 were added to both the apical and basolateral side to stimulate CFTR. An increase in chloride current is seen as an upward deflection of the trace. After another 30 min, CFTR-172 (a CFTR inhibitor, 2 μM) and/or bumetanide (20 μM) was added to block CFTR mediated chloride current.
The raw data, current vs. time for the Ussing chamber (sampling interval: 10 s) and voltage vs. time and resistance vs. time for the equivalent current assay (sampling interval: 5 minutes) were transferred to Excel (Microsoft Office Professional, version 14.0.7106.5003) for analysis. CFTR specific current was measured as the average amplitude of the increase in current elicited upon addition forskolin and ending upon addition of the CFTR channel specific blocker CFTR-172. This average is equivalent to the sum of the average forskolin activated and the average VX770-potentiated currents. The average current measured in vehicle (0.1% DMSO) treated cells, Iv, was subtracted from the current for the test article, ITA, or from the corrector reference standard VX809 (3 μM ISTD. For replicate measurements, the average vehicle subtracted response for the test article, was normalized to the average vehicle subtracted […] response of the reference corrector VX809 (3 μM). INSC=(ITA−IV)(ave)/(ISTD−IV)(ave) (Equation 1)
A second endpoint, for the equivalent current assay, evaluated was NAUC, the normalized area under the curve (AUC) measuring the response after addition of forskolin and VX770 to the time point right before the addition of the CFTR inhibitor. The AUC is effectively the average response multiplied by the duration of the response. The AUC of the test article, AUCTA was then corrected by subtracting the average vehicle response, AUCV,ave over the same time range, and normalized as for the inhibitor-sensitive current to the difference of the corrector reference standard VX809 (3 μM VX809r,ave and the vehicle response: NAUCTA=[AUCTA−AUCV,ave]/[AUCVx809r,ave−AUCV,ave](Equation 2).
The normalized value for DMSO is 0.0 and for VX-809 alone is 1.0. Combinations of compounds with VX-809 that give normalized values greater than 1.0 show activity in the combination assay. A value of 2 means the test compound doubles the effect to VX-809 alone.
Experiments were run with a minimum of n=4 replicates per concentration. […]

Compound | NAUC (normalized area under the curve), Test Conc 3 uM | NAUC (normalized area under the curve), Test Conc 10 uM
CN1CCN(C(=O)CCCCNC(=O)c2cc(-c3ccc(F)cc3)on2)CC1 [Example 15, 5-(4-fluorophenyl)-N-(5-(4-methylpiperazin-1-yl)-5-oxopentyl)isoxazole-3-carboxamide] | +++ (NAUC “+++” refers to an observed NAUC >170% of positive control) | +++ (NAUC “+++” refers to an observed NAUC >170% of positive control)
O=C(NCc1cccnc1)c1cc(-c2ccc(F)cc2)on1 [Example 24] | ++ (NAUC “++” refers to an observed NAUC 170-140% of positive control) | ++ (NAUC “++” refers to an observed NAUC 170-140% of positive control)
CN1CCN(C(=O)CCCNC(=O)c2cc(-c3ccc(F)cc3)on2)CC1 [Example 14, 5-(4-fluorophenyl)-N-(4-(4-methylpiperazin-1-yl)-4-oxobutyl)isoxazole-3-carboxamide] | +++ (NAUC “+++” refers to an observed NAUC >170% of positive control) | +++ (NAUC “+++” refers to an observed NAUC >170% of positive control)
CC(C)Oc1ccc(CNC(=O)c2cc(-c3ccc(F)cc3)on2)cc1 [Example 19] | + (NAUC “+” refers to an observed NAUC <140% of positive control) | + (NAUC “+” refers to an observed NAUC <140% of positive control)
CN1CCN(C(=O)CCCCNC(=O)c2cc(-c3ccccc3)on2)CC1 [Example 43, N-(5-(4-methylpiperazin-1-yl)-5-oxopentyl)-5-phenylisoxazole-3-carboxamide] | +++ (NAUC “+++” refers to an observed NAUC >170% of positive control) | +++ (NAUC “+++” refers to an observed NAUC >170% of positive control)
CN1CCN(C(=O)CCCCNC(=O)c2cc(-c3ccccc3)no2)CC1 [Example 59] | +++ (NAUC “+++” refers to an observed NAUC >170% of positive control) | +++ (NAUC “+++” refers to an observed NAUC >170% of positive control)
O=C(NC[C@H]1CCCO1)c1cc(-c2ccc(F)cc2)on1 [Example 30] | ++ (NAUC “++” refers to an observed NAUC 170-140% of positive control) | ++ (NAUC “++” refers to an observed NAUC 170-140% of positive control)
